Data reported in the NIST ThermoML archive (doi:10.1021/acs.jced.7b00039).
± gives the expanded uncertainty stated by the source.

Experiment: wn = mass fraction of the nth substance listed
Details: 100 kPa, Liquid; for viscosity: Cone and plate viscometry; for mass density: Vibrating tube method

CC(CC(C)(C)C)CP(=O)([O-])CC(C)CC(C)(C)C.CCCCCCCCCCCCCC[P+](CCCCCC)(CCCCCC)CCCCCC + CCCC(=O)O
Details | mass density, 298 K [kg/m3] | mass density, 310 K [kg/m3] | mass density, 318 K [kg/m3] | viscosity, 298 K [mPa·s] | viscosity, 310 K [mPa·s] | viscosity, 318 K [mPa·s]
w2 = 0 | 884.09 ± 9.7 | 876.93 ± 9.6 | 872.2 ± 9.5 | 1023 ± 120 | 521 ± 59 | 345 ± 38
w2 = 0.0122 | 886.44 ± 9.7 | 879.26 ± 9.6 | 874.5 ± 9.5 | 952 ± 110 | 465 ± 52 | 304 ± 33
w2 = 0.0346 | 892.23 ± 9.7 | 884.71 ± 9.6 | 879.8 ± 9.5 | 785 ± 90 | 389 ± 43 | 257 ± 28
w2 = 0.0349 | 889.81 ± 9.6 | 882.5 ± 9.6 | 877.64 ± 9.5 | 787 ± 91 | 388 ± 43 | 255 ± 28
w2 = 0.0684 | 893.84 ± 9.6 | 886.39 ± 9.5 | 881.5 ± 9.5 | 562 ± 63 | 278 ± 30 | 185 ± 20
w2 = 0.14 | 899.77 ± 9.5 | 892.33 ± 9.4 | 887.48 ± 9.4 | 348 ± 38 | 181 ± 19 | 123 ± 13
w2 = 0.242 | 909.13 ± 9.5 | 901.49 ± 9.4 | 896.4 ± 9.3 | 216 ± 23 | 118 ± 12 | 82.2 ± 8.5
w2 = 0.301 | 914.05 ± 9.4 | 906.22 ± 9.3 | 901 ± 9.3 | 159 ± 17 | 87.9 ± 9.1 | 62.1 ± 6.4
w2 = 0.375 | 919.8 ± 9.4 | 911.62 ± 9.3 | 906.17 ± 9.3 | 92.7 ± 9.6 | 53.5 ± 5.5 | 38.9 ± 4
w2 = 0.44 | 924.13 ± 9.4 | 915.64 ± 9.3 | 909.99 ± 9.2 | 56.9 ± 5.9 | 34.4 ± 3.5 | 25.5 ± 2.6
w2 = 0.491 | 927.26 ± 9.4 | 918.52 ± 9.3 | 912.71 ± 9.2 | 38.8 ± 4 | 24.6 ± 2.5 | 18.8 ± 1.9
w2 = 0.715 | 939.25 ± 9.4 | 929.27 ± 9.3 | 922.63 ± 9.3 | 7.55 ± 0.79 | 5.51 ± 0.56 | 4.56 ± 0.47
w2 = 0.991 | 953.5 ± 9.5 | 941.63 ± 9.4 | 933.77 ± 9.3 | 1.69 ± 0.17 | 1.39 ± 0.14 | 1.23 ± 0.12
